# Laboratory results from article PMC11195807, “Development of a multi-targeted chemotherapeutic approach based on G-quadruplex stabilisation and carbonic anhydrase inhibition” (Journal of Enzyme Inhibition and Medicinal Chemistry, 2024).
# Key:
# [1] = test system: c-Myc; assay: CD melting experiments, c-Myc GQ; type: binding; conditions: ΔT1/2 of compound minus ΔT1/2 of berberine, 1 molar equiv
# [2] = test system: Hairpin; assay: CD melting experiments, hairpin DNA duplex; conditions: 2 molar equiv compound, T1/2 of DNA alone 66.0 °C
# Description: To evaluate the possible binding and stabilisation of double-stranded DNA, a 27-nt long hairpin-forming sequence (Hairpin) was employed.
# In particular, the following DNA sequences were synthesised and employed for the experiments: d([sequence]) (c-Kit1), d([sequence]) (c-Myc), d([sequence]) (Tel23), and d([sequence]) (Hairpin). Oligonucleotides were dissolved in the proper buffer and their concentration was measured by UV absorption at 90 °C, as previously reported[80]^,[81]. To achieve the correct folding of the sequences, the DNA solutions were heated in a water bath at 90 °C for 5 min, and then allowed to cool slowly to room temperature overnight. Then, DNA samples were stored at 4 °C for 24 h, before data acquisition.
# The samples were prepared by dissolving the oligonucleotides in 5 mM KH2PO4/K2HPO4 buffer (pH 7.0) containing 20 mM KCl (or LiCl in the case of c-Myc because of its high thermal stability). DNA concentrations of 20 µM for GQs and 30 µM for Hairpin were used. For each compound, a 10 mM stock solution in 100% DMSO was prepared. […] CD spectra were acquired at 20 and 100 °C, in the 230–320 nm wavelength range, averaged over three scans and subtracted of the buffer baseline. The scanning speed was set to 100 nm/min, with a 0.5 s response time, and 1 nm bandwidth. CD melting experiments were carried out in the 20–100 °C temperature range, with 1 °C/min heating rate, by following changes in the CD signal at the wavelengths of the maximum CD intensity (i.e. 263 nm for c-Kit1 and c-Myc, and 290 nm for Tel23). As for Hairpin, CD melting curves were recorded by following the changes in the CD signal at 252 nm (the wavelength of the minimum CD intensity). CD melting curves were normalised between 0 and 1. […] The ΔT1/2 values correspond to the difference in the T1/2 values of the nucleic acid structures in the presence and absence of the compounds. All experiments were performed in duplicate, and the reported values are the mean of the two measurements.
# [3] = test system: c-Kit1; assay: CD melting experiments, c-Kit1 GQ; type: binding
# [4] = target: T1, hCA II (Homo sapiens, UniProt P00918); assay: stopped-flow CO2 hydrase assay, hCA II; type: biochemical; conditions: coumarins; inhibitor-enzyme incubation 6 h
# T1 construct: made in house
# Procedure, shortened: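 Inhibition of CA-catalysed CO2 hydration was measured with a stopped-flow method. Recombinant human isoforms were used at 5–12 nM enzyme.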
# [5] = test system: HeLa cells; assay: MTT assay, HeLa cells in normoxia; type: cell-based; conditions: Homo sapiens, 48 h, normoxia, read-out: IC50 (50% of cell viability reduction), MTT assay
# Description: Combining the results on carbonic anhydrase inhibition and GQ thermal stabilisation, we selected the sulphonamides S-2,0, S-4,0, S-5,0 and the coumarins C-3,2, C-4,2, C-5,2 as the most promising MTDLs to be further investigated, since able to both efficiently suppress the activity of the hCAs IX/XII and stabilise GQ structures, in vitro. Moreover, given that crystals suitable for X-ray diffraction analyses had been successfully obtained for the human telomeric DNA GQ in complex with S-3,2, we also included such sulphonamide derivative in the subsequent studies. Thus, we assessed the cytotoxicity of the selected MTDLs on CA IX-positive HeLa cells, using the MTT assay.
# HeLa cells were grown in Dulbecco’s Modified Eagle’s Medium supplemented with 10% FBS, 100 U/mL penicillin, and 100 μg/mL streptomycin, at 37 °C, in a 5% CO2/95% air atmosphere. Cells were sub-cultured at 90% confluence, in the split ratio 1:8, every 3–5 days. The MTDLs used in this study, as well as the CAIs S and C, were dissolved in DMSO at 40 mM (for the sulphonamides) or 10 mM (for the coumarins) concentration. As for berberine, a 50 mM stock solution in DMSO was prepared. Each tested compound was diluted in cell culture medium to the required concentration, immediately prior to use. As regards the experiments under hypoxic conditions, an 80 mM stock solution of CoCl2 was prepared in sterile distilled water and further diluted in medium to obtain the final desired concentrations.
# For the MTT experiments in the presence of normal oxygen levels, HeLa cells were seeded in 96-well plates at a density of 15,000 cells per well (culture medium volume – 100 μL/well) and incubated at 37 °C, for 24 h. The medium was then removed, and HeLa were incubated, for 48 h, with fresh medium containing increasing concentrations of MTDLs, single-target-directed agents (berberine, S, and C) or vehicle (0.5% DMSO). The MTDL C-4,2 was also tested for 12 h. As for the co-treatments, cells were co-treated for 12 h with equimolar concentrations of berberine and C. As regards the MTT experiments under hypoxic conditions, HeLa cells were seeded in 96-well plates (8,000 cells per well) and incubated overnight, pre-treated with 50 μM cobalt (II) chloride hexahydrate (CoCl2) and then, for the following 12 h, either exposed to increasing concentrations of C-4,2 or vehicle (0.5% DMSO), or co-treated with equimolar concentrations of berberine and C. Each condition was assayed in triplicate. At the end of the treatments, 10 µL of MTT reagent were added to each well, at a final concentration of 0.5 mg/mL, and the plates were incubated at 37 °C for 4 h. To dissolve the resulting purple formazan crystals, 100 μL of the solubilisation solution were added into each well and the plates were allowed to stand overnight in the incubator (37 °C, 5% CO2/95% air). Finally, the optical density of the samples (at 570 nm) was measured on an ELx800 Absorbance Microplate Reader (BioTek Instruments, Inc., Winooski, VT, USA). The percentage (%) of cell survival for each condition was calculated by using the following equation: % cell survival=OD− OD0/ODCONTROL− OD0×100 where OD is the optical density of the sample, OD0 is the optical density of the background signal, and ODCONTROL is the optical density of the control sample (cells treated with vehicle, 0.5% DMSO). The concentration able to reduce by 50% the cellular viability (IC50) was calculated, for each investigated compound, using Prism 8.0.2 (GraphPad, San Diego, CA, USA) and plotting the percentage of cell survival versus the compound concentration (µM).
# [6] = target: T2, hCA IX (Homo sapiens, UniProt Q16790); assay: stopped-flow CO2 hydrase assay, hCA IX; type: biochemical
# T2 construct: made in house
# Procedure, shortened: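 Inhibition of CA-catalysed CO2 hydration measured by stopped-flow technique. Recombinant human CA IX and XII enzymes produced in-house.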
structure (smiles),measurement,setting,value
"COc1ccc2cc3[n+](cc2c1OCCCCCn1cc(COc2ccc4ccc(=O)oc4c2)nn1)CCc1cc2c(cc1-3)OCO2 [Compound 39, 10-Methoxy-9-((5–(4-(((2-oxo-2H-chromen-7-yl)oxy)methyl)-1H-1,2,3-triazol-1-yl)pentyl)oxy)-5,6-dihydro-[1,3]dioxolo[4,5-g]isoquinolino[3,2-a]isoquinolin-7-ium hexafluorophosphate]",ΔΔT1/2 c-Myc,[1],>13.0 °C
same,ΔΔT1/2 c-Myc,"[1]; listed as C-5,2",> 13.0 °C
same,ΔT1/2 Hairpin,[2],-1.0 °C
same,ΔT1/2 c-Kit1,"[3]; 2 molar equiv compound, T1/2 of DNA alone 55.0 °C",20.0 °C
same,ΔΔT1/2 c-Kit1,"[3]; ΔT1/2 of compound minus ΔT1/2 of berberine, 2 molar equiv",7.0 °C
same,Ki,[4],> 100 µM
same,IC50,[5],37.5 µM
same,Ki,"[6]; coumarins, inhibitor-enzyme incubation 6 h, mean ± SEM of three assays",0.0486 ± 0.0026 µM
same,Selectivity index (SI) I/IX,[6]; hCA IX over hCA I,> 205.8
same,Selectivity index (SI) II/IX,[6]; hCA IX over hCA II,> 205.8
